Test results: patent publication US10059699B2, “Tetrahydroquinoline derivatives as bromodomain inhibitors” (GlaxoSmithKline Intellectual Property (No.2) Limited, priority 2014, dated 2018)
Where two headings read alike, the source gives them in different places. Marks after values point to notes of the source that are not given here.

Assays:
hERG = hERG (Homo sapiens, UniProt Q12809); experiment: hERG liability
TNFα = experiment: LPS induced secretion of TNFα from whole blood; assay type: cell-based; conditions: human whole blood, LPS 200 ng/mL, n=4; read-out: pIC50, LPS induced TNFα secretion (converted)
Source text: Activation in whole blood of predominantly monocytic cells by agonists of toll-like receptors such as bacterial lipopolysaccharide (LPS) results in production of key inflammatory mediators, including TNFα. Such pathways are widely considered to be central to the pathophysiology of a range of auto-immune and inflammatory disorders.
Human Whole Blood from 2 donors (n=2) is collected using Sodium heparin as anti-coagulent (Wockhardt cat# FP1712) (10 units of heparin/mL of blood). Compounds were prepared as [10 mM] DMSO stocks and then diluted such that the top starting concentration was [1.4 mM] followed by 8×3-fold dilutions in DMSO. Final assay concentrations start at [10 μM] for all compounds. 1 μL diluted compound was added per well in a 96-well U bottom plate. 1 μL DMSO only was added to column 10 (+ve control) and 1-((2S,4R)-2-methyl-4-(phenylamino)-6-(4-(piperidin-1-ylmethyl)phenyl)-3,4-dihydroquinolin-1(2H)-yl)ethanone (for a preparation see Compound 28, J. Med. Chem. 2014, 57, 8111-8131, 1 μL, 1.4 mM) added to column 11 (−ve control). […] 150 μL of 2×MSD Read Buffer T (stock 4×MSD Read Buffer T was diluted 50:50 with de-ionised water) was then added to each well and the plates read on the MSD Sector Imager 6000. Concentration response curves for each compound were generated from the data using internal XC50 analysis and an IC50 value was calculated.

[1] = system: multiple myeloma cells (OPM-2); experiment: Cancer cell line proliferation assay, OPM-2; assay type: cell-based; conditions: Homo sapiens, OPM-2 cells, 72 hours, CellTiter Glo, n = 2
Description: The impact of the compound of Examples 7 and 14 on cancer cell proliferation was determined using patient derived NUT midline carcinoma cells (11060), multiple myeloma cells (OPM-2, DSMZ) and biphenotypic B myelomonocytic leukaemia cells (MV-4-11, ATCC) in a 72 hour proliferation assay. 11060 and OPM-2 cells were maintained in RPMI 1640 medium (Invitrogen) supplemented with 10% HI-FBS (Heat-Inactivated Fetal Bovine Serum, Hyclone) and 2 mM L-glutamine (Invitrogen) at 37° C. and an atmosphere of 5% CO2. MV-4-11 cells were maintained in IMDM media supplemented with 10% HI-FCS, 2 mM L-glutamine, 1× Non-essential amino acids (Invitrogen) and 1× sodium pyruvate (1 mM) (Invitrogen). Cells were diluted to 1.11×10^5 cells/mL and 90 μL/well plated into black sided, clear bottomed 96 well tissue culture plates (Corning), using growth media supplemented with penicillin/streptomycin (Invitrogen). Cells were incubated overnight at 37° C. and in one plate, ATP levels were measured using the CellTiter Glo assay (Promega) according to the manufacturer's instructions, to give a baseline reading (t=0). 3-fold serial dilutions of compounds ranging from 6 mM to 0.3 μM were prepared in 100% DMSO. The DMSO dilution series was diluted 20-fold in growth media before 10 μl of the resulting dilutions were added to the appropriate wells of the remaining cell plates. The final compound concentrations in the wells ranged from 30 μM to 1.5 nM in 0.5% DMSO. Cells were incubated with compounds for 72 hours before assaying for ATP content using CellTiter Glo (t=72). CellTiter Glo data from each t=72 time point was normalised to the relevant t=0 time point data, and expressed as % t=0.

Immunoglobulin-1 (IgG1) = experiment: TNP-KLH induced IgG1 production mouse assay; assay type: in vivo, mice; conditions: 30 mg/kg oral; for Day 14 IgG1: 14 day dosing, male CD1 mice; for % reduction in IgG1 from vehicle: day 14
Description: The compound was assayed for its ability to inhibit trinitrophenol-keyhole limpet hemocyanin (TNP-KLH) induced Immunoglobulin-1 (IgG1) production in mice. Male CD1 mice (Charles River Laboratories, 8 per group) received a single oral administration of compound (in 1% (w/v) methylcellulose, aq 400) either once every day (QD), once every other day (QOD) or once every 72 hours (QOED) over a 14 day dosing period. On day 1 of the study, each mouse received a single bolus intraperitoneal (ip) administration of TNP-KLH (100 μg/kg, T-5060-25, Lot #021562-06) 1 hour after oral administration of compound. Serial blood samples were collected at 1 hour post oral compound administration via tail veil on days 1, 4, 7, 9 and 11 or via cardiac puncture (terminal sample) on day 14 and the serum harvested from the blood samples was frozen at −80° C. On the day of analysis, the serum was thawed to room temperature and levels of IgG1 were measured using a TNP ELISA (developed in-house) and read on a SpectraMax 190 spectrophotometer (Molecular Devices, CA). The mean IgG1 values were generated and the mean percent IgG1 reduction on day 14 following treatment with compound was calculated compared to the corresponding vehicle treated group. Levels of significance were calculated by analysis of variance (ANOVA) followed by Dunnett's multiple comparison t-test using Graphpad Prism version 5.04 (Graphpad Software, San Diego, Calif.). Statistical differences were determined as […].

hERG, sequence (Q12809 whole entry): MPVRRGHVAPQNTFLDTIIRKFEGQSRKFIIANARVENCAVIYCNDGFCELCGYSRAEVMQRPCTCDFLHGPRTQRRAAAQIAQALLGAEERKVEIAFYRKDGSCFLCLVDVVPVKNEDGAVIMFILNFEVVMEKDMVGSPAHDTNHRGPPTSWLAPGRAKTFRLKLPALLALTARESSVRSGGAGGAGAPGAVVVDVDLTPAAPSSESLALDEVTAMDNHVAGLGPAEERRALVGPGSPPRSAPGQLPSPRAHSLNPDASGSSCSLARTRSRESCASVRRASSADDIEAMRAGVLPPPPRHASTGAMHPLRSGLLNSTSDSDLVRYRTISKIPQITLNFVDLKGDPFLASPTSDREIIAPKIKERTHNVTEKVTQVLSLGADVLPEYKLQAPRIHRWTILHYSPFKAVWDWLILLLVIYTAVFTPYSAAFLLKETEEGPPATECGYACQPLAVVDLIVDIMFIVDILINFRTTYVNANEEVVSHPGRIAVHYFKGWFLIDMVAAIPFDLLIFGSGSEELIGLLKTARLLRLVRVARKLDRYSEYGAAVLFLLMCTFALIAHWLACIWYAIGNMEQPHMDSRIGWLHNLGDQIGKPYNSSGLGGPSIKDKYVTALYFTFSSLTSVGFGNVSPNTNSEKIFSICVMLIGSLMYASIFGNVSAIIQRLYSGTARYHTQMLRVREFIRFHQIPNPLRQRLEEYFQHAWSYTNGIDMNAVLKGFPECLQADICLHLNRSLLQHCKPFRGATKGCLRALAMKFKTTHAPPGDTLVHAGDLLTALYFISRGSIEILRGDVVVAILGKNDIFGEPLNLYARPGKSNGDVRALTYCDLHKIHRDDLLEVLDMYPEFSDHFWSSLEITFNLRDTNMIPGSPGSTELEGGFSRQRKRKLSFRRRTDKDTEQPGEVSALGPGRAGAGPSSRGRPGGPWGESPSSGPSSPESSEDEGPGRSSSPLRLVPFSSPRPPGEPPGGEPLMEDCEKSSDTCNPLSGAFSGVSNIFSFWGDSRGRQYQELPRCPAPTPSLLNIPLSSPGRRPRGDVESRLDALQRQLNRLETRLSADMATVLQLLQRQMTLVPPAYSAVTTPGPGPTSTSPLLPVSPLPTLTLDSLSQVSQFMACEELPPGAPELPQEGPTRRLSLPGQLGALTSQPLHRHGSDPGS

CC(=O)N1c2ccc(C(N)=O)cc2[C@H](Nc2ncc(Cl)cn2)C[C@@H]1C [Example 14, (2S,4R)-1-acetyl-4-((5-chloropyrimidin-2-yl)amino)-2-methyl-1,2,3,4-tetrahydroquinoline-6-carboxamide]
hERG liability (hERG): no hERG liability | IC50 (TNFα): 63.1 nM | IC50 ([1]; full curve fit, read-out: Cellular Proliferation: pIC50 (converted)): 200 nM | IC50 ([1]; read-out: Cellular Proliferation: gpIC50 (converted)): 126 nM | Day 14 IgG1 (Immunoglobulin-1 (IgG1); QD): 127 ng/mL | % reduction in IgG1 from vehicle (Immunoglobulin-1 (IgG1); QD): 98*** % | Day 14 IgG1 (Immunoglobulin-1 (IgG1); QOD): 373 ng/mL | % reduction in IgG1 from vehicle (Immunoglobulin-1 (IgG1); QOD): 93*** % | Day 14 IgG1 (Immunoglobulin-1 (IgG1); QOED (every 72 hours)): 3162 ng/mL | % reduction in IgG1 from vehicle (Immunoglobulin-1 (IgG1)): 41%
